Measurements reported in patent US20230059009A1, “INHIBITORS OF LIN28 AND METHODS OF USE THEREOF” (The Regents of the University of California, priority 2019, published 2023).
“Also recorded” adds a separate entry of the source.

Tests used:
MCF7 = assay: Cell viability, CTG, MCF7; format: cell-based; details: Homo sapiens, MCF7 (Breast)
Procedure: (§1) To measure cell viability, cell titer glow (CTG, Promega CellTiter-Glo 2.0 Assay) and MTT assays (SigmaAldrich, Cell Proliferation Kit I) were performed. Briefly, cells were serum starved overnight prior to seeding in 96-well plates. Following 24 h incubation, cells were treated with increasing concentrations of JGJ compounds for 96 hr. At assay read-out, CellTiter-Glo reagent was added and luminescence was measured after 10-minutes incubation at room temperature. For the MTT assay, MTT labeling reagent was added and incubated for 4 h. Subsequently, medium was removed and 50 μL DMSO was added to solubilize the crystals, and absorbance was measured at 570 nm. Cell viability was calculated as (Sample-Background)/(Control-Background). Current standard of care drugs, Enzalutamide, Palbociclib and Cetuximab were used as comparative controls.

Caco2 = Caco2 permeability; format: in vitro ADME; details: Conc. 100 uM
[1] = test system: let-7a/b and let-7 target genes; assay: miRNA and let-7 target gene expression in primary AML patient cells; format: cell-based, human; details: primary AML cells from three relapsed patients; 80-120 μM, 72 h
Excerpt: To measure the complete degree to which LN1632 regulates gene expression, we carried out RNA sequencing (RNAseq) in LSC-like Kasumi-1 cells. […] Importantly, we confirmed this gene expression pattern in primary AML cells from three relapsed patients (validated for LIN28B overexpression compared to healthy WBM). […] This is important because NFκB1, regulated by let-7 through IL6 (23) is, together with other BCL-2 family members (BAX, BCL2L15 and BMF, FIG. 5A), a well characterized gene associated with unique properties of LSC survival and AML relapse (45, 59, 60). […] We next explored the effect of LN1632 on primary AML cells.

MYC-driven cancers = assay: Cell viability and cell counting assays in cancer cells; format: cell-based; details: TNBC, CRPC, lung and colorectal adenocarcinoma cells
Procedure: To test whether LN1632 and novel analogs thereof affect cancer cell growth, cell viability and cell counting assays in TNBC (FIG. 14B-D), castration resistant prostate cancer cells (CRPC, FIG. 15A-C) and colorectal cancer cells (CRC, FIG. 15A-C) were performed.
as §1

[2] = Tolerability / MTD in healthy C57BL/6 mice
Procedure: Next, the tumor suppressive effect of LN1632 in vivo was investigated. The maximum tolerated dose (MTD) was evaluated in healthy female C57Bl/6 mice.

CD34+ AML pt. #13 cells = assay: CFC assay, AML pt #13 CD34+ cells vs healthy CD34+ BM cells; format: cell-based, human; details: AML pt #13 vs healthy donor CD34+ cells; 80-120 μM
Kasumi-1 = assay: Systemic Kasumi-1 AML xenograft; format: in vivo, mice; details: systemic Kasumi-1 xenograft; for Animal survival: IP 100 mg/kg every other day for 21 d; for Tumor burden (bioluminescence imaging): IP 100 mg/kg every other day, d+26
Procedure: Subsequently, the tumor suppressive effect of LN1632 in cancer in vivo was assessed. High LIN28B expressing THP-1 AML cells (2×10^6 cells) were implanted in NSGS mice (cell suspension in matrigel, 3:1) and at d+12 or d+8 (tumor size=50 mm^2) injection of LN1632 IP at 100 mg/kg daily was initiated. […] The effect of LN1632 in a systemic Kasumi-1 xenograft was also assessed. […] The effects of LN1632 to cytarabine chemotherapy (Ara-C) was also compared, as previously described (74). THP-1 AML cells were subcutaneously implanted (1.5×10^6 cells, high LIN28B) in NSGS mice. Daily IP injections with 100 mg/kg LN1632, 60 mg/kg cytarabine chemotherapy (Ara-C), or vehicle was started at +d3 post AML cell implantation and continued until the vehicle group reached maximal allowed tumor size (250 mm^2).

LIN28B protein = LIN28B protein (Homo sapiens, UniProt Q6ZN17); assay: Western blot of LIN28B protein levels in AML cells; details: Kasumi-1 and THP-1; 1632 120-160 μM
LIN28B protein, sequence (Q6ZN17 whole entry): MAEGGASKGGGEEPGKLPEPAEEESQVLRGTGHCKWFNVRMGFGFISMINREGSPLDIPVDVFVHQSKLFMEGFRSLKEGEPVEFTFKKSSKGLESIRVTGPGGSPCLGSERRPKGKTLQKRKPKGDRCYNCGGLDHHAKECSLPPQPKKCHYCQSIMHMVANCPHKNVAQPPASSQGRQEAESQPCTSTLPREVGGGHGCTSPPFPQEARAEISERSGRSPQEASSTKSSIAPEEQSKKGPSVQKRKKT
Procedure: Thus, we subcutaneously (subQ) implanted THP-1 (high LIN28B) cells or MOLM-13 (no LIN28B) into NSG mice and 12 d later (tumor size=40 mm^2) started administration of 1632 IP at 100 mg/kg every other day.

[3] = test system: LIN28B-expressing Ewing Sarcoma (EwS); details: recent report (72); cited from earlier work
SW620 = assay: Cell viability, CTG, SW620; format: cell-based; details: SW620 (Colon)
Procedure: as §1

PRPF31 = molecular target: T1, PRPF31 (Homo sapiens, UniProt Q8WWY3); assay: MS-CETSA and IP-MS target engagement; format: binding; design: endogenous in cells; host or cells: Kasumi-1 cell lysate
T1 sequence (Q8WWY3 1-499): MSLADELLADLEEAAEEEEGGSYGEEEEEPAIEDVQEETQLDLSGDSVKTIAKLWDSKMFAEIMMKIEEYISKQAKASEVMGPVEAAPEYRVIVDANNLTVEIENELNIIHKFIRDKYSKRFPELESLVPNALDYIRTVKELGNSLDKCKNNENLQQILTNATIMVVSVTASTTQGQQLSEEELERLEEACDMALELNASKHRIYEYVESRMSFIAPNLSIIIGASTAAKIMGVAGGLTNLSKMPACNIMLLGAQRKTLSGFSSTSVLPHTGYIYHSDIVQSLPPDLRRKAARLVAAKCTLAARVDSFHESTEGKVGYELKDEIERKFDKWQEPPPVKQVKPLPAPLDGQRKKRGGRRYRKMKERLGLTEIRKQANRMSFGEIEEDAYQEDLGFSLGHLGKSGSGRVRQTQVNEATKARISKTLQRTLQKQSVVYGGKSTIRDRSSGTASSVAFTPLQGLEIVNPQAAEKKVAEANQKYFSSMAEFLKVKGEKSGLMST
Procedure: Mass spectrometry cellular thermal shift assay (MS-CETSA, FIG. 12A) as described in (75), and immunoprecipitation using biotinylated LN1632 (FIG. 12B) were performed. […] PRPF31 is recruited to introns where its highly conserved Nop-domain coordinates the U4 snRNA—15.5K protein interaction. Subsequently, PRPF31 stabilizes the U4/U6.U5 tri-snRNP by concomitantly interacting with PRPF6 and induces the transition of the spliceosomal complex to the activated state (78).

## CC(=O)Nc1cccc(-c2ccc3ncc(C)n3n2)c1 [JGJ007, N-(3-(3-Methylimidazo[1,2-b]pyridazin-6-yl)phenyl)acetamide]
MCF7
  IC50: 115 µM

## CC(=O)N(C)c1cccc(-c2ccc3nnc(C)n3n2)c1 [LN1632]
Caco2
  Caco2 Mean A-B % Recovery: 89.4%
  Caco2 efflux ratio: 1.08
  Caco2 permeability Papp A-B: A-B: 20.9 10^−6 cm/s
  Caco2 permeability Papp B-A: B-A: 22.7 10^−6 cm/s
[1]
  Mature let-7a/b and let-7 target gene expression: dose-dependent, significant upregulation of mature let-7a/b and downregulation of multiple let-7 target genes
MYC-driven cancers
  Proliferation and apoptosis of cancer cells: reduced proliferation and induced apoptosis preferentially in MYC-driven cancers
[2]; 100 mg/kg daily +12 d then every other day +9 d, at +21 d
  Weight gain: normal weight gain; also recorded: no significant changes in weight gain
[2]; 100 mg/kg daily for +12 d then every other day for +9 d, female C57Bl/6 mice
  Complete blood count (CBC) profile: normal complete blood count (CBC) profile, without any leukopenia or thrombocytopenia, only mild anemia
[2]; 100 mg/kg every other day for 21 d, healthy C57BL/6 mice
  Tolerability: non-toxic, well tolerated
[2]; mouse, in vivo
  Tolerability (MTD evaluation): well tolerated
CD34+ AML pt. #13 cells
  Colony formation (CFC): affects colony formation of CD34^+ AML pt. #13 cells significantly more than healthy CD34^+BM cells
Kasumi-1; 100 mg/kg
  Animal survival: significantly prolonged animal survival; also recorded: prolongs survival
  Tumor burden (bioluminescence imaging): decreased tumor burden; also recorded: reduces tumor burden
Kasumi-1; listed as 1632, 100 mg/kg
  Animal survival: prolongs survival; also recorded: significantly prolonged animal survival
  Tumor burden (bioluminescence imaging): reduces tumor burden; also recorded: decreased tumor burden
LIN28B protein
  LIN28B protein levels: inhibits LIN28B protein expression; also recorded: dose-dependently decreases LIN28B protein levels
[3]
  Suppression of Ewing Sarcoma: selectively suppresses LIN28B-expressing Ewing Sarcoma (EwS) but not LIN28B depleted EwS
SW620
  IC50: 191 µM
PRPF31
  Interaction partners by MS-CETSA and immunoprecipitation: interacts with additional RNA-binding proteins, in particular pre-mRNA processing factor 31
PRPF31; Kasumi-1 cell lysate
  Tm shift (MS-CETSA): induces Tm shift of endogenous PRPF31
PRPF31; n=3
  IP-MS capture with biotinylated LN1632, competitive elution: captures PRPF31
